Source: patent publication US20030129672A1, “Method for identifying metalloenzyme inhibitors” (priority 2001, published 2003)
Where two headings read alike, the source gives them in different places.

Assays:
Assay type in all cases: biochemical
MMP-13CD = MMP-13CD (Homo sapiens, UniProt P45452); assay: Fluorigenic peptide-1 substrate based assay with and without acetohydroxamic acid, MMP-13CD; details: for IC50: MMP-13CD, FP1 substrate
Description: 50 mM HEPES buffer (pH 7.0)
2% DMSO (with or without inhibitor test compound)
Alternatively, an endpoint read can also be used to determine reaction velocity provided the initial fluorescence of the solution, as recorded before addition of enzyme, is subtracted from the final fluorescence of the reaction mixture. […] This determination was done for experiments done in the presence, and experiments done in the absence, of acetohydroxamic acid. Data were fit to the equation: […]

MMP-2 [1] = target: T1, MMP-2 (Homo sapiens, UniProt P08253); assay: Fluorigenic peptide-1 substrate based assay with and without acetohydroxamic acid, MMP-2; details: MMP 2FL, FP1 substrate
T1 sequence (P08253 110-660): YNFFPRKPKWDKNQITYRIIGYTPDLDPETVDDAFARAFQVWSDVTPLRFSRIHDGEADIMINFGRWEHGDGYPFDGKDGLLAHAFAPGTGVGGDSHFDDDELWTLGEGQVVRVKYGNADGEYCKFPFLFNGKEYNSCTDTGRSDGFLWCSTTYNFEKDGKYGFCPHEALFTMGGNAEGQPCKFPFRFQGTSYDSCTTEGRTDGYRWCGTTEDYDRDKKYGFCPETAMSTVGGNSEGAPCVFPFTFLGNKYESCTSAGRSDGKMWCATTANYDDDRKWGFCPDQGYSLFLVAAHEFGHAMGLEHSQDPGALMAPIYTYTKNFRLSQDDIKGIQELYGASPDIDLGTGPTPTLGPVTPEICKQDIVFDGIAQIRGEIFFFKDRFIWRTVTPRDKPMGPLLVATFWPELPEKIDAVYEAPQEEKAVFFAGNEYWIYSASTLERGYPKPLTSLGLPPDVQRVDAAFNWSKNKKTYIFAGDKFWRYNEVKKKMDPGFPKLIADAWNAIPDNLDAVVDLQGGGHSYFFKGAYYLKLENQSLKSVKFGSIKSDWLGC

MMP-9 = MMP-9 (Homo sapiens, UniProt P14780); assay: Fluorigenic peptide-1 substrate based assay with and without acetohydroxamic acid, MMP-9; details: MMP 9FL, FP1 substrate
Sequence of MMP-9 (P14780 94-707, species assumed): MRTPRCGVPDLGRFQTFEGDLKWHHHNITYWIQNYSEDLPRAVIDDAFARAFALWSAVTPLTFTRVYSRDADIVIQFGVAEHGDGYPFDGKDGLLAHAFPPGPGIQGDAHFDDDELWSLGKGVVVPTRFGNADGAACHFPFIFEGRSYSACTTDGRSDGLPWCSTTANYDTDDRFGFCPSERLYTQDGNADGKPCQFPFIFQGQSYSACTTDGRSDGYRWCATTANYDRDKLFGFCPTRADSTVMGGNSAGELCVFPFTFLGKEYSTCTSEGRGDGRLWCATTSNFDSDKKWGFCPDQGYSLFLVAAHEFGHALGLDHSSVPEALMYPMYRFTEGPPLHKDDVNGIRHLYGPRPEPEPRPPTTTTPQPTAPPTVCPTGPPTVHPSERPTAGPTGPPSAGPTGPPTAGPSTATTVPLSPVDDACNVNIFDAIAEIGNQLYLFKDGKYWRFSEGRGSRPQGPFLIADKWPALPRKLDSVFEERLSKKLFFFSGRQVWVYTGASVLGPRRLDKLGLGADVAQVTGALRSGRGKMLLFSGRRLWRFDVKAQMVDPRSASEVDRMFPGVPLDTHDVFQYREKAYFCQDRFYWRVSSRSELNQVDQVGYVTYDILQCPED

MMP-2 [2] = target: T1, MMP-2; assay: Steady-state kinetics of the mechanism of inhibition of MMP-2 (FIG. 1); details: 6 concentrations from 0 nanomolar to 600 nanomolar, 1/V0 versus 1/[S]
Description: FIG. 1 is a graph that plots 1 over the initial velocity VO, which is the initial rate of product formation in a steady state kinetics assay, on the Y-axis versus 1 over concentration of substrate [S] used in the assay on the X-axis for inhibition of MMP-2 with N-[(3-phenylisoxazol-5-ylmethyl)-aminothiocarbonyl]-benzamide at 6 concentrations of from 0 nanomolar to 600 nanomolar.
In FIG. 1, 1 over the initial velocity VO, which is the initial rate of product formation in a steady state kinetics assay, is plotted on the Y-axis versus 1 over concentration of substrate [S] used in the assay on the X-axis for inhibition of MMP-2 with N-[(3-phenylisoxazol-5-ylmethyl)-aminothiocarbonyl]-benzamide at 6 concentrations of from 0 nanomolar to 600 nanomolar.

[3] = 0 mM acetohydroxamic acid, read-out: Without AcNHOH IC50
[4] = 15 mM acetohydroxamic acid (1 Kd), read-out: With AcNHOH IC50
[5] = about 1 Kd of acetohydroxamic acid, read-out: With AcNHOH IC50
[6] = no acetohydroxamic acid, read-out: Without AcNHOH IC50

| Compound | IC50 (MMP-13CD; [3]) | IC50 (MMP-13CD; [4]) | also measured |
| --- | --- | --- | --- |
| Nc1ccc(-c2ccc(S(N)(=O)=O)cc2)cc1 [Entry 1] | 34 µM | 16 µM |  |
| NS(=O)(=O)c1ccc(-c2ccc([N+](=O)O)cc2)cc1 [Entry 2] | 84 µM | 3.1 µM |  |
| COc1ccc(NC(=O)Nc2ccc3nc(C)cc(N)c3c2)cc1 [Entry 3] | 126 µM | 71 µM |  |
| Cc1cc(O)nc(SCc2ccc(Cl)cc2)n1 [Entry 4] | 64 µM | 4.7 µM |  |
| COc1ccc(C(=O)NCc2cccnc2)cc1C(=O)NCc1cccnc1 [Entry 7] | 27 µM | 11 µM |  |
| O=C(NC(=S)NCc1cc(-c2ccccc2)no1)c1ccccc1 [N-[(3-phenylisoxazol-5-ylmethyl)-aminothiocarbonyl]-benzamide] |  |  | IC50 (MMP-2 [1]; [5]): 90 nM; IC50 (MMP-2 [1]; [6]): 900 nM; IC50 (MMP-9; [5]): 1200 nM; IC50 (MMP-9; [6]): 3100 nM; Mechanism of inhibition of MMP-2 by steady-state kinetics (MMP-2 [2]): uncompetitive inhibitor |
| CC(=O)NO [acetohydroxamic acid, reference compound] |  |  | Kd (MMP-13CD): 15 mM |

Now from value to molecule, other results behind:

| IC50 (MMP-13CD; [3]) | IC50 (MMP-13CD; [4]) | Compound | also measured |
| --- | --- | --- | --- |
| 9.5 µM | 11 µM | Cc1c(-c2ccc(-n3ccnc3)cc2)[nH][nH]c1=O [Entry 5] |  |
| 17 µM | 14 µM | CCOC(=O)/C=C/c1ccc(-n2ccnc2)cc1 [Entry 6] |  |
